Experiment [1] concerns the target T1, cat T1R1/T1R3 receptor (Felis catus, UniProt A0ABI7Z2I4).
T1 sequence (A0ABI7Z2I4 171-420): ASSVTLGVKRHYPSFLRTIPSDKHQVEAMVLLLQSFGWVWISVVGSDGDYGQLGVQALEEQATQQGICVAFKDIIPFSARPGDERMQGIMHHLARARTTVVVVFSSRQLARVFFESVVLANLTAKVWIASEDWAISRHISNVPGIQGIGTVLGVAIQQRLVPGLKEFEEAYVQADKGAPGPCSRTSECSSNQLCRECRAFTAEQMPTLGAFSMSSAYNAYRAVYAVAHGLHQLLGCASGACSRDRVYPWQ
T1 sequence (Q49KI5 25-865 E206Q/N523D/F654L partner): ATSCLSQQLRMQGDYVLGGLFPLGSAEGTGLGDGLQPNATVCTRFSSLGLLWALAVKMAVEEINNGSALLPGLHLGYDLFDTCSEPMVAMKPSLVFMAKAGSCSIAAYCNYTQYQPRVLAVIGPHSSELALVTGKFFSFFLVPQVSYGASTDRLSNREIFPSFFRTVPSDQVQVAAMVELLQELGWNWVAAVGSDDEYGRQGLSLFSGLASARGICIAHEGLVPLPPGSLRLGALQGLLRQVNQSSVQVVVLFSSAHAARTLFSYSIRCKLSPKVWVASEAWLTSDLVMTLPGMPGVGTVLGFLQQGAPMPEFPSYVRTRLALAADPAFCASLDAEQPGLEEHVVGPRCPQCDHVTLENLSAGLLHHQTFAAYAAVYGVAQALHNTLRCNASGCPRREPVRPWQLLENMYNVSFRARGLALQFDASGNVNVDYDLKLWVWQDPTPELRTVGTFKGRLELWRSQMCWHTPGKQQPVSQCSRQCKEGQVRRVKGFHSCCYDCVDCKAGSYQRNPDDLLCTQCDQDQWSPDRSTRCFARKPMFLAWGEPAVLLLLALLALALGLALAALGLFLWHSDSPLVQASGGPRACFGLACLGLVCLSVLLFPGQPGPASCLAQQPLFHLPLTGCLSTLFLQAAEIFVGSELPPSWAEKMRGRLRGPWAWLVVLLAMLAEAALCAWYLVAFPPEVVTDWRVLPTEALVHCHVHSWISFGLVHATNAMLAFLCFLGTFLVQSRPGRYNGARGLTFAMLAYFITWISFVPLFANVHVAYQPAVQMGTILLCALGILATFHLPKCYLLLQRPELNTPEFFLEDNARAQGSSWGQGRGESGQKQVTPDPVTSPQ
Put plainly: cell-based. The procedure, abridged:
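HEK293 cells stably expressing T1R3 with inducible T1R1, treated with nucleotide derivatives alone or combined with amino acids and/or nucleotides. Activation read as intracellular calcium change by calcium-sensitive fluorescent dye and/or luminescent reporter. Cells expressing T1R3 without T1R1 served as control.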

Experiment [2] has as its target T1, cat T1R1/T1R3 receptor. Briefly: cell-based. As to the method:
[…] Activation of the T1R1/T1R3 receptor was detected by a change in intracellular calcium levels using a calcium sensitive fluorescent dye. Cells that express T1R3 but not T1R1 were used as a control. A FLIPR® Tetra or a FlexStation® 3 was used for data capture.
In each experiment, serial dilutions of up to 0.1 mM, 1 mM or 10 mM of the nucleotide derivative were added to the T1R1/T1R3-expressing cells.
The source holds these as a separate data set.

The target of experiment [3] is T2, T1R1/T1R3 receptor (Felis catus, UniProt E3UMS2). Briefly: Example 6: activation of T1R1/T1R3 by transmembrane compounds, conducted as in Example 5. Type of experiment: cell-based. The text has this:
HEK293 cells that stably express T1R3 and inducibly express T1R1 were exposed to transmembrane compounds alone or in combination with one or more amino acids and/or one or more nucleotides to activate the umami receptor. Activation of the T1R1/T1R3 receptor was detected by a change in intracellular calcium levels using a calcium sensitive fluorescent dye. Cells that express T1R3 but not T1R1 were used as a control. A FLIPR® Tetra or a FlexStation® 3 was used for data capture.
In each experiment, serial dilutions of up to 10 mM of the transmembrane compound were added to the T1R1/T1R3-expressing cells.

The target of experiment [4] is T2, T1R1/T1R3 receptor. Briefly: cell-based. The note with it: for Max resp % of Ala, +IMP (0.2 mM): relative to alanine; for Thres (mM), +IMP (0.2 mM): threshold concentration in the presence of 0.2 mM IMP. The essentials: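 HEK293 cells stably expressing T1R3 with inducible T1R1 were given transmembrane compounds in serial dilutions up to 10 mM, alone or with amino acids and/or nucleotides. Receptor activation was read as an intracellular calcium change with a calcium-sensitive fluorescent dye; T1R3-only cells served as control.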

Where [5] appears, read: with 20 mM alanine, read-out: EC50- with Ala.
The mark [6] stands for this setting: test compound alone (in buffer), read-out: EC50- alone.
[7] abbreviates: T1R1/T1R3 EC50 +0.2 mM IMP, +0.2 mM IMP.
The mark [8] stands for this setting: alone in buffer, read-out: T1R1/T1R3 EC50 alone in buffer.
Where [9] appears, read: EC50 (mM), +Alanine (20 mM) + IMP (0.2 mM), in the presence of 20 mM alanine and 0.2 mM IMP.
The mark [10] stands for this setting: EC50 (mM), +IMP (0.2 mM), in the presence of 0.2 mM IMP.
[11] abbreviates: T1R1/T1R3 EC50 +20 mM L-alanine + 0.2 mM IMP, +20 mM L-alanine + 0.2 mM IMP.
The mark [12] stands for this setting: compound alone in buffer, read-out: EC50 (mM), +buffer (alone).

Counter-ions that a name gives are not always drawn. Like-named read-outs stand apart in the source and are kept apart here. Some results are limits rather than exact numbers.

Seven compounds from patent US20180168208A1 (priority 2014, published 2018) can be followed below.

`O=c1nc[nH]c2c1ncn2C1O[C@H](COP(=O)(O)OP(=O)(O)OP(=O)(O)O)[C@@H](O)[C@H]1O` (stereo partly shown) [inosine triphosphate (ITP) trisodium salt]: on cat T1R1/T1R3 receptor [1], the outcome was active, the EC50 is 80 µM, the “Max resp. (ΔF/F)” value was 0.3 ΔF/F and the “Max. resp. % of IMP” value was 25.1 % of IMP. Besides, the Threshold at cat T1R1/T1R3 receptor [1] is on record as 0.02 mM. For the same compound, the EC50 on cat T1R1/T1R3 receptor [2] (setting [5]) is 80 ± 10 µM.

As for `Nc1ncnc2c1ncn2[C@H]1C[C@H](OP(=O)(O)O)[C@@H](COP(=O)(O)O)O1` [2′-deoxyadenosine-3′, 5′-O-bisphosphate], at cat T1R1/T1R3 receptor [1], the “Max resp. (ΔF/F)” value was 0.8 ΔF/F, the “Max. resp. % of IMP” value is given as 76.4 % of IMP and the Threshold is given as 0.005 mM. Moreover, the EC50 on cat T1R1/T1R3 receptor [2] (setting [6]) was determined as 20 µM.

As for `Nc1ccccc1C(=O)NCCc1ccccc1` [2-amino-N-phenethylbenzamide], the EC50 on T1R1/T1R3 receptor [3] turned out to be 480 ± 10 µM; at T1R1/T1R3 receptor [3] (setting [7]) it was 140 ± 30 µM; at T1R1/T1R3 receptor [3] (setting [8]) it was 420 ± 10 µM; at T1R1/T1R3 receptor [4] (setting [9]), 0.09 mM; at T1R1/T1R3 receptor [4] (EC50 (mM), +Alanine (20 mM), in the presence of 20 mM alanine), 0.48 mM; at T1R1/T1R3 receptor [4] (setting [10]), 0.14 mM. For the same compound, the EC50 is 0.14 ± 0.02 mM at T1R1/T1R3 receptor [4] (setting [7]); 0.09 ± 0.01 mM at T1R1/T1R3 receptor [4] (setting [11]); 0.48 ± 0.01 mM at T1R1/T1R3 receptor [4] (T1R1/T1R3 EC50 +20 mM L-alanine, +20 mM L-alanine); 0.42 ± 0.01 mM at T1R1/T1R3 receptor [4] (setting [8]); 0.42 mM on T1R1/T1R3 receptor [4] (setting [12]). Moreover, the “Max resp % of IMP, +Alanine (20 mM)” value on T1R1/T1R3 receptor [4] was determined as 93.4%. Besides, the “Thres (mM), +Alanine (20 mM)” value on T1R1/T1R3 receptor [4] was 0.3 mM. Moreover, the “Max resp % of Ala, +IMP (0.2 mM)” value at T1R1/T1R3 receptor [4] (in the presence of 0.2 mM IMP) turned out to be 194.5%. The “Thres (mM), +IMP (0.2 mM)” value on T1R1/T1R3 receptor [4] came to 0.01 mM.

In the case of `C[C@H](N)C(=O)O` [alanine], the EC50 on T1R1/T1R3 receptor [4] (EC50 (effect with 0.2 mM IMP)) came out at 12.3 ± 1.3 mM; at T1R1/T1R3 receptor [4] (EC50 (mM), +IMP (0.2 mM)) it was 12.3 mM; at cat T1R1/T1R3 receptor [1], 13600 ± 4300 µM; at cat T1R1/T1R3 receptor [2] (EC50- alone), 13600 µM. Also, the “Max resp % of Ala, +IMP (0.2 mM)” value on T1R1/T1R3 receptor [4] (in the presence of 0.2 mM IMP) is reported as 100.0%. The “Thres (mM), +IMP (0.2 mM)” value at T1R1/T1R3 receptor [4] amounted to 3.0 mM.

Turning to `Nc1ncnc2c1ncn2C1OC(COP(O)(O)=S)C(O)C1O` (stereo not shown) [adenosine 5′-O-thiomonophosphate, Adenosine 5′-O-thiomonophosphate], the figures for the EC50 at cat T1R1/T1R3 receptor [2] (setting [6]) and at cat T1R1/T1R3 receptor [2] (setting [5]) were over 1000 µM and 60 µM, respectively.

As for `O=C(NCCc1c[nH]c2ccccc12)c1cccnc1` [N-(2-(1H-indol-3-yl)ethyl)nicotinamide, N-(2-(1H-Indol-3-yl)ethyl)nicotinamide], the EC50 at T1R1/T1R3 receptor [3] (setting [7]) turned out to be 50 ± 10 µM; at T1R1/T1R3 receptor [3] (setting [8]), 150 ± 30 µM; at T1R1/T1R3 receptor [4] (setting [9]), 0.04 mM; at T1R1/T1R3 receptor [4] (setting [10]), 0.05 mM; on T1R1/T1R3 receptor [4] (setting [7]), 0.05 ± 0.01 mM; on T1R1/T1R3 receptor [4] (setting [11]), 0.04 ± 0.1 mM. In addition, the EC50 on T1R1/T1R3 receptor [4] (setting [8]) was 0.15 ± 0.03 mM; at T1R1/T1R3 receptor [4] (setting [12]), 0.15 mM. The “Max resp % of IMP, +Alanine (20 mM)” value at T1R1/T1R3 receptor [4] stood at 166.4%. For the same compound, at T1R1/T1R3 receptor [4], the “Thres (mM), +Alanine (20 mM)” value is reported as 0.03 mM. The “Max resp % of Ala, +IMP (0.2 mM)” value at T1R1/T1R3 receptor [4] (in the presence of 0.2 mM IMP) was 170.1%. Also, the “Thres (mM), +IMP (0.2 mM)” value at T1R1/T1R3 receptor [4] came out at 0.003 mM.

As to `O=c1[nH]cnc2c1ncn2C1OC(COP(=O)(O)OP(=O)(O)O)C(O)C1O` (stereo not shown) [Inosine 5′-disphosphate (IDP) sodium salt], at cat T1R1/T1R3 receptor [2], the EC50 was found to be 650 ± 70 µM.
